pIC50: −log10 of the molar value.
Key:
[1] = target: T1, CDK7/Cyclin H/MAT1 kinase (Homo sapiens (Human), UniProt P50613); experiment: Enzyme activity test, mobility shift assay (Table 3); type: biochemical; settings: 2 mM ATP, pre-incubated 0 and 60 minutes
Method: IC50 values of the compounds for CDK7 kinase were detected in Wuxi Biortus Biosciences Co. Ltd.
The compound powder was dissolved in 100% DMSO to prepare a 10 mM storage solution. The storage solution was further diluted to 0.5 mM as the initial concentration, and continuously diluted 3 times to obtain 10 compound solutions with different concentrations. The compound and enzyme were pre-incubated for 0 minutes and 60 minutes, respectively, using duplicate detection.
was used as a positive control, using Mobility shift say method, to detect CDK kinase (such as CDK7, CDK9, CDK12 and CDK2) activity of the compound.

[2] = tested on: breast cancer cells MDA-MB 231; experiment: Cell anti-proliferation experiment, MTT (Table 4); type: cell-based, human; settings: incubate 3 days
Description: (§1) Human breast cancer cells MDA-MB 231, MDA-MB453, ovarian cancer cells OVCAR3, colorectal cancer cells HCT-116 and lung cancer cells NCI-H209 were purchased from BNCC. DMEM medium (Bio-Channel), DMSO (dimethyl sulfoxide), MTT (thiazole blue), 0.25% EDTA-Tripsin (pancreatin digestive juice), 1×PBS (phosphate buffer, PH7.2), 96-well plate (Corning), fetal bovine serum (FBS), 10,000 U/mL penicillin-G/streptomycin, high-speed freezing centrifuge (EPPENDORF 5810R), enzyme-linked immunosorbent assay (Tecan Spark).
(§2) • A) Tumor cells were cultured to 80-90% density in DMEM (high sugar, containing 10% FBS and 100 U/mL penicillin-G/streptomycin) at 37° C., 5% CO2 and saturated humidity. • B) The culture medium was removed from the 10 cm culture dish. • C) Cells were washed with 10 ml 1×PBS. • D) 4 ml of 0.25% EDTA-Tripsin was added to an incubator to digest pancreatin for 5 minutes at 37° C. and 5% CO2, transferred to a 15 ml centrifuge tube, centrifuged for 5 minutes at 200 g, and supernatant was discarded to obtain cell precipitation. • E) The cell precipitation was resuspended with 4 ml DMEM medium, counted and adjusted to 50,000 cells/ml. • F) Cell suspension was added to a 96-well plate with a volume of 100 μL per well and cultured overnight in a 5% CO2 incubator at 37° C.
(§3) • A) Preparing the tested compound gradient dilution solution: TY 2600 1 mM, TY 2601 1 mM, TY-2648a 1 mM, TY-2648b 1 mM and TY-2650 1 mM storage solutions were prepared. Then 1.5 μl of storage solution was dissolved in 1.5 ml of DMSO-free culture solution, and then performed 3-fold continuous gradient dilution with 0.1% DMSO culture solution for a total of 9 concentrations. The concentrations of the diluted compound were as follows: • 333.33 nM, 111.11 nM, 37.03 nM, 12.35 nM, 4.15 nM, 1.37 nM, 0.46 nM, 0.15 nM • B) After full mixing, 100 μL of culture compound solution was taken to replace the culture solution in the cell culture plate, with 4 duplicated wells at each concentration; • C) The cells were transferred to incubator to incubate for 3 days.
(§4) • A) The cell culture plate was taken out and added with 5 mg/ml MTT 10 μL in the biosafety cabinet; • B) The cell culture plate was put back into the incubator and continued to incubate for 3 hours; • C) The cell culture plate was taken out to remove the culture solution, 100 μL isopropanol (containing 0.4 mM HCl, 0.1% NP-40) was added, shaking at room temperature for 30 minutes; • D) The absorbance value was measured at 570 nm on TECAN enzyme linked immunosorbent assay.

[3] = tested on: colorectal cancer cells HCT-116; experiment: Cell anti-proliferation experiment, MTT (Table 4); type: cell-based, human; settings: incubate 3 days
Description: as §1, §2, §3, §4

[4] = tested on: ovarian cancer cells OVCAR3; experiment: Cell anti-proliferation experiment, MTT (Table 4); type: cell-based, human; settings: incubate 3 days
Description: as §1, §2, §3, §4

[5] = tested on: breast cancer cells MDA-MB453; experiment: Cell anti-proliferation experiment, MTT (Table 4); type: cell-based, human; settings: incubate 3 days
Description: as §1, §2, §3, §4

[6] = target: CDK12 (aa686-1082)/Cyclin K (Homo sapiens (Human), UniProt Q9NYV4); experiment: Enzyme activity test, mobility shift assay (Table 1); type: biochemical; settings: 2 mM ATP; read-out: CDK12 kinase IC50
Chain of CDK12 (aa686-1082)/Cyclin K (Q9NYV4 686-1082): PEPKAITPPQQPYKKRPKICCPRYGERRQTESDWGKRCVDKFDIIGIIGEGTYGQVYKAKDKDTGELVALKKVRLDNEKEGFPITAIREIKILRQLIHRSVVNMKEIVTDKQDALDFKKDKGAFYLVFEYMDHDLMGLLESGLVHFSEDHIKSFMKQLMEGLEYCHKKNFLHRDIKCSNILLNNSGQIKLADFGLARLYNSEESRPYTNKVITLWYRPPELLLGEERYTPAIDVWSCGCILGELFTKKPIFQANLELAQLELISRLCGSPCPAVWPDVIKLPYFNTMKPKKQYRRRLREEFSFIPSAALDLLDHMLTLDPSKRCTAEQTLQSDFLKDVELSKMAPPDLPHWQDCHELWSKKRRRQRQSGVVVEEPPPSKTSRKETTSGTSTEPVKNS
Chain of CDK12 (aa686-1082)/Cyclin K (O75909 whole entry partner, the tested form may be a part): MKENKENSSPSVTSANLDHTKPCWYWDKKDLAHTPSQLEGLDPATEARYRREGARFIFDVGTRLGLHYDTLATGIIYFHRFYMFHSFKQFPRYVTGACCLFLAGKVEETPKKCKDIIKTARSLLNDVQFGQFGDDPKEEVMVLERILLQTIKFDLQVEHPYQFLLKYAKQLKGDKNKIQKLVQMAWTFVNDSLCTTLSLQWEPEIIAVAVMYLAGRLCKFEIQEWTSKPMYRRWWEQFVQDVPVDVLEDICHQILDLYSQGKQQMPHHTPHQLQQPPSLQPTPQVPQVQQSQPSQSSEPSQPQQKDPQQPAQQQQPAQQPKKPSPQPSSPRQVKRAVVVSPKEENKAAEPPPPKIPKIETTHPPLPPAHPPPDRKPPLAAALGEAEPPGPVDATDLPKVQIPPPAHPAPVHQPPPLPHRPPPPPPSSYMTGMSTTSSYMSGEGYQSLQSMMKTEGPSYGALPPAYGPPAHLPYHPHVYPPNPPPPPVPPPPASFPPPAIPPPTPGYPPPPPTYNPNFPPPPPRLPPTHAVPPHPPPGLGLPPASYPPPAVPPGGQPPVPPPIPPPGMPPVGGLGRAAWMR
Procedure, shortened: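 Mobility shift kinase assay on CDK9/Cyclin T1 and CDK12 (aa686-1082)/Cyclin K. Ten-point 3-fold dilution series started from a 0.5 mM intermediate solution in DMSO, with compound–enzyme pre-incubation of 0 or 60 min, in duplicate. Staurosporine served as positive control.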

[7] = target: T1, CDK7/Cyclin H/MAT1 kinase; experiment: as above; type: biochemical; settings: 2 mM ATP; pre-incubated 0 and 60 minutes
lung cancer cell Calu-6 = experiment: Cell anti-proliferation experiment, MTT (Table 2); type: cell-based; settings: Homo sapiens, Calu-6, 72 h, incubate 3 days
Description: as §1, with “OVCAR3 and A2780,” for “OVCAR3,”, “and WiDr, and” for “and”, “cell Calu-6” for “cells NCI-H209”
as §2, with “1. Cell Plating • A)” for “• A)”
(§5) Compound Dilution • A) Preparing the tested compound gradient dilution solution: the tested compounds were prepared into 10 mM and 1 mM storage solution respectively. Firstly, 1 μl and 0.5 μl of 10 mM storage solution were dissolved in 1 ml of DMSO-free culture solution, respectively, to obtain diluted compounds with concentrations of 10 and 5 μM. Then, 1.5 μl of 1 mM storage solution was dissolved in 1.5 ml of DMSO-free culture solution to obtain a dilution compound with a concentration of 1 μM, and then diluted with a 3-fold continuous gradient with […] culture solution for a total of 7 concentrations. The concentrations of all 10 diluted compounds mentioned above were as follows: • 10 μM, 5 μM, 1 μM, 333.33 nM, 111.11 nM, 37.03 nM, 12.35 nM, 4.15 nM, 1.37 nM, 0.46 nM • B) After full mixing, 100 μL of culture compound solution was taken to replace the culture solution in the cell culture plate, with 4 duplicated wells at each concentration; • C) The cells were transferred to incubator to incubate for 3 days.
as §4, with “3. MTT Detection • A)” for “• A)”

[8] = tested on: breast cancer cells MDA-MB 231; experiment: Cell anti-proliferation experiment, MTT (Table 2); type: cell-based; settings: Homo sapiens, MDA-MB-231, 72 h, incubate 3 days
Description: as §1, with “OVCAR3 and A2780,” for “OVCAR3,”, “and WiDr, and” for “and”, “cell Calu-6” for “cells NCI-H209”
as §2, with “1. Cell Plating • A)” for “• A)”
as §5
as §4, with “3. MTT Detection • A)” for “• A)”

[9] = tested on: colorectal cancer cells HCT-116; experiment: Cell anti-proliferation experiment, MTT (Table 2); type: cell-based; settings: Homo sapiens, HCT-116, 72 h, incubate 3 days
Description: as §1, with “OVCAR3 and A2780,” for “OVCAR3,”, “and WiDr, and” for “and”, “cell Calu-6” for “cells NCI-H209”
as §2, with “1. Cell Plating • A)” for “• A)”
as §5
as §4, with “3. MTT Detection • A)” for “• A)”

[10] = tested on: ovarian cancer cells OVCAR3; experiment: Cell anti-proliferation experiment, MTT (Table 2); type: cell-based; settings: Homo sapiens, OVCAR-3, 72 h, incubate 3 days
Description: as §1, with “OVCAR3 and A2780,” for “OVCAR3,”, “and WiDr, and” for “and”, “cell Calu-6” for “cells NCI-H209”
as §2, with “1. Cell Plating • A)” for “• A)”
as §5
as §4, with “3. MTT Detection • A)” for “• A)”

[11] = tested on: breast cancer cells MDA-MB453; experiment: Cell anti-proliferation experiment, MTT (Table 2); type: cell-based; settings: Homo sapiens, MDA-MB-453, 72 h, incubate 3 days
Description: as §1, with “OVCAR3 and A2780,” for “OVCAR3,”, “and WiDr, and” for “and”, “cell Calu-6” for “cells NCI-H209”
as §2, with “1. Cell Plating • A)” for “• A)”
as §5
as §4, with “3. MTT Detection • A)” for “• A)”

CDK2/Cyclin El = CDK2/Cyclin El (Homo sapiens (Human), UniProt P24941); experiment: Enzyme activity test, mobility shift assay (Table 1); type: biochemical; settings: 2 mM ATP; read-out: CDK2 kinase IC50
Procedure, shortened: (§6)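 Human CDK9/Cyclin T1 and CDK2/Cyclin E1 activity measured by mobility shift assay. Compounds tested as 10-point, 3-fold dilution series starting at 0.5 mM (diluted from 10 mM DMSO stock), in duplicate, with 0 min or 60 min compound–enzyme pre-incubation.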

CDK9/Cyclin Tl = CDK9/Cyclin Tl (Homo sapiens (Human), UniProt P50750); experiment: as above; type: biochemical; settings: 2 mM ATP; read-out: CDK9 kinase IC50
Chain of CDK9/Cyclin Tl (P50750 whole entry): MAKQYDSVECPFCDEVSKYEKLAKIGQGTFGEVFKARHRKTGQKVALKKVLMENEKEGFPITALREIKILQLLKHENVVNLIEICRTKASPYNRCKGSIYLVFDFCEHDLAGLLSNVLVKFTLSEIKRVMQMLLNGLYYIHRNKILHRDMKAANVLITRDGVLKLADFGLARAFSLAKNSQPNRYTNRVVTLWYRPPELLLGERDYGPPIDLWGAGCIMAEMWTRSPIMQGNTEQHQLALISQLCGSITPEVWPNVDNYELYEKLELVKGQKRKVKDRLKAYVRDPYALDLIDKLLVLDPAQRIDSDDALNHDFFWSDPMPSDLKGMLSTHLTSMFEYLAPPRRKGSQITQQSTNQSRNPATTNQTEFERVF
Chain of CDK9/Cyclin Tl (O60563 whole entry partner): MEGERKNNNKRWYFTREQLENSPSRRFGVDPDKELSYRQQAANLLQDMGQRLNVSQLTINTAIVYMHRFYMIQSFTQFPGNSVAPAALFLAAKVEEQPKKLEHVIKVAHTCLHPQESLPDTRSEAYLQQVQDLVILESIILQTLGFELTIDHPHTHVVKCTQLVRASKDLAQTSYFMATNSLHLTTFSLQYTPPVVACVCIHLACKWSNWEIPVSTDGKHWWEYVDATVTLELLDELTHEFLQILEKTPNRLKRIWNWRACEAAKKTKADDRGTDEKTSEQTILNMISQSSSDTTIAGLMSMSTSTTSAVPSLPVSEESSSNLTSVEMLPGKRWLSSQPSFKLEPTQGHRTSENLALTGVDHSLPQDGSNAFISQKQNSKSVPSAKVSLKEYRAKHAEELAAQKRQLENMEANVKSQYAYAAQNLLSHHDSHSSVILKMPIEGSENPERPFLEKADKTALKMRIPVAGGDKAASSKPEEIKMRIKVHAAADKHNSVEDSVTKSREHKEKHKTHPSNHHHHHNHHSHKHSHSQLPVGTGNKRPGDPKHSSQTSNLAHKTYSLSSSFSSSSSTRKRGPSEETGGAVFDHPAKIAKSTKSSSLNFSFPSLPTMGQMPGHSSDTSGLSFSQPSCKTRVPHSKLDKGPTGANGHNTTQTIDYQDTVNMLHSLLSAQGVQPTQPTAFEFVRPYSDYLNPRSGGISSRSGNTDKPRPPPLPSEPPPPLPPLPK
Procedure, shortened: as §6

[12] = tested on: ovarian cancer cells A2780; experiment: Cell anti-proliferation experiment, MTT (Table 2); type: cell-based, human; settings: Homo sapiens, A2780, 72 h, incubate 3 days
Description: as §1, with “OVCAR3 and A2780,” for “OVCAR3,”, “and WiDr, and” for “and”, “cell Calu-6” for “cells NCI-H209”
as §2, with “1. Cell Plating • A)” for “• A)”
as §5
as §4, with “3. MTT Detection • A)” for “• A)”

[13] = tested on: colorectal cancer cells WiDr; experiment: Cell anti-proliferation experiment, MTT (Table 2); type: cell-based, human; settings: Homo sapiens, WiDr, 72 h, incubate 3 days
Description: as §1, with “OVCAR3 and A2780,” for “OVCAR3,”, “and WiDr, and” for “and”, “cell Calu-6” for “cells NCI-H209”
as §2, with “1. Cell Plating • A)” for “• A)”
as §5
as §4, with “3. MTT Detection • A)” for “• A)”

T1 sequence (P50613 whole entry): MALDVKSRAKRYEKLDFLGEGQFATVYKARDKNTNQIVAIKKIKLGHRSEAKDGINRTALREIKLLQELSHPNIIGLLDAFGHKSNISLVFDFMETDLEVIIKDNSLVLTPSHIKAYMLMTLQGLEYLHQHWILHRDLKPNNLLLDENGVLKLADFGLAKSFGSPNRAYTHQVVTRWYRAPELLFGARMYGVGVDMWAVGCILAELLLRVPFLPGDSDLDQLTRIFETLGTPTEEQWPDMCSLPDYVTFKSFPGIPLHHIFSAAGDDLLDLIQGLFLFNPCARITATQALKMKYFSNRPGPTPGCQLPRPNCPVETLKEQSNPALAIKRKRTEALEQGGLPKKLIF
T1 sequence (P51946 whole entry partner): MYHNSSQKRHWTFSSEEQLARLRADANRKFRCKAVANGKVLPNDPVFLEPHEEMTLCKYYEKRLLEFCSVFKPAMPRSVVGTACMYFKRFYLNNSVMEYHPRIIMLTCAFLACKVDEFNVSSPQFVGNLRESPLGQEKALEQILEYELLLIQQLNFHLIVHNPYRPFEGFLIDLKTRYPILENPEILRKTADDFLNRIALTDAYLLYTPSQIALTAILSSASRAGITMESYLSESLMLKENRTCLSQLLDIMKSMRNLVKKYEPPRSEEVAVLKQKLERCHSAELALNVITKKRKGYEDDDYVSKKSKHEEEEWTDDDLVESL
T1 sequence (P51948 whole entry partner): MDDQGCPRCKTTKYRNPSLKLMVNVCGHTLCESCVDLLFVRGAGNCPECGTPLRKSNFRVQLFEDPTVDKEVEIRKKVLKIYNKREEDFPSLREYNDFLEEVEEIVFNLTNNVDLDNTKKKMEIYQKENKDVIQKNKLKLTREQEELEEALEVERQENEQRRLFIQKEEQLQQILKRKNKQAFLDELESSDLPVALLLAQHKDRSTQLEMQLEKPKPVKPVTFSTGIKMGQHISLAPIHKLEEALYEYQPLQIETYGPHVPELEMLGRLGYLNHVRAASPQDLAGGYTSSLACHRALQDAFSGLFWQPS

Compound	pIC50 [1]	IC50 ([2]; Homo sapiens, MDA-MB-231, 72 h) [nM]	IC50 ([3]; Homo sapiens, HCT-116, 72 h) [nM]	IC50 ([4]; Homo sapiens, OVCAR-3, 72 h) [nM]	IC50 ([5]; Homo sapiens, MDA-MB-453, 72 h) [nM]	IC50 [2] [nM]	IC50 [3] [nM]	IC50 [4] [nM]	IC50 [5] [nM]	pIC50 [6]	pIC50 [7]	IC50 (lung cancer cell Calu-6) [nM]	IC50 [8] [nM]	IC50 [9] [nM]	IC50 [10] [nM]	IC50 [11] [nM]	pIC50 (CDK2/Cyclin El)	pIC50 (CDK9/Cyclin Tl)	IC50 [12] [nM]	IC50 [13] [nM]
CC1(C)CC[C@H](Nc2ncc(C(F)(F)F)c(-c3c[nH]c4c(P5(=O)CCCC5)c(C#N)ccc34)n2)CN1 [Example 01]	> 8.00	10 to 500	10 to 500	10 to 500	10 to 500															
CC1(C)CC[C@H](Nc2ncc(C(F)(F)F)c(-c3c[nH]c4c(P5(=O)CCCC5)nccc34)n2)CN1 [Example 14]	> 8.00	10 to 500	10 to 500	10 to 500	10 to 500															
COC(=O)Nc1ccc2c(-c3nc(N[C@H]4CCC(C)(C)NC4)ncc3C(F)(F)F)c[nH]c2c1P1(=O)CCCC1 [Example 20]	> 8.00	10 to 500	10 to 500	10 to 500	10 to 500															
CC1(C)CC[C@H](Nc2ncc(C(F)(F)F)c(-n3cnc4c(P(C)(C)=O)c(C#N)ccc43)n2)CN1 [Example 31]	> 8.00					10 to 500	10 to 500	10 to 500	10 to 500											
CP(C)(=O)c1c(C#N)ccc2c(-c3nc(N[C@H]4CCC(=O)NC4)ncc3C(F)(F)F)c[nH]c12 [Example 48]	> 8.00	10 to 500	10 to 500	10 to 500	10 to 500															

Continued, values first:

pIC50 [1]	IC50 ([2]; Homo sapiens, MDA-MB-231, 72 h) [nM]	IC50 ([3]; Homo sapiens, HCT-116, 72 h) [nM]	IC50 ([4]; Homo sapiens, OVCAR-3, 72 h) [nM]	IC50 ([5]; Homo sapiens, MDA-MB-453, 72 h) [nM]	IC50 [2] [nM]	IC50 [3] [nM]	IC50 [4] [nM]	IC50 [5] [nM]	pIC50 [6]	pIC50 [7]	IC50 (lung cancer cell Calu-6) [nM]	IC50 [8] [nM]	IC50 [9] [nM]	IC50 [10] [nM]	IC50 [11] [nM]	pIC50 (CDK2/Cyclin El)	pIC50 (CDK9/Cyclin Tl)	IC50 [12] [nM]	IC50 [13] [nM]	Compound
									< 6.30	> 7.30	68.9	145	62.5	41.8	51.9	< 6.30	< 6.30	7.97	12.2	COC(=O)Nc1ccc2c(-c3nc(N[C@H]4CCCNC4)ncc3C(F)(F)F)c[nH]c2c1Br [Example T-01]
									< 6.30	> 7.30	40.1	52.7	47.8	25.1	10.8	6.30 to 7.30	< 6.30	7.65	13.8	COC(=O)Nc1ccc2c(-c3nc(N[C@H]4CCCNC4)ncc3C(F)(F)F)c[nH]c2c1OC [Example T-37]
									< 6.30	> 7.30	110	181	137	98.4	77.9	< 6.30	< 6.30	12.3	22.2	CCOC(=O)Nc1ccc2c(-c3nc(N[C@H]4CCCNC4)ncc3C(F)(F)F)c[nH]c2c1Br [Example T-42]
									< 6.30	> 7.30	107	119	89.2	51.1	17.7	< 6.30	< 6.30	16.1	28.3	COC(=O)Nc1ccc2c(-c3nc(N[C@H]4CCCNC4)ncc3C(F)(F)F)c[nH]c2c1C [Example T-52]
									< 6.30	> 7.30	57	75.5	55.4	38.8	23.8	< 6.30	< 6.30	12.5	6.35	COCCOC(=O)Nc1ccc2c(-c3nc(N[C@H]4CCCNC4)ncc3C(F)(F)F)c[nH]c2c1Br [Example T-62]
									< 6.30	> 7.30	114	144	35.3	69.8	53.1	< 6.30	< 6.30	14.2	16.3	COC(=O)Nc1ccc2c(-c3nc(N[C@H]4CCCNC4)ncc3C(F)(F)F)c[nH]c2c1Cl [Example T-79]

Source: US20230295130A1, “COMPOUND USEFUL AS CDK7 KINASE INHIBITOR AND USE THEREOF” (TYK MEDICINES, INC., priority 2020, published 2023)
